The structures appear in SMILES notation. Converted amounts (≈) assume the structure as drawn.

Sequence of CYP3A4 (P08684 whole entry): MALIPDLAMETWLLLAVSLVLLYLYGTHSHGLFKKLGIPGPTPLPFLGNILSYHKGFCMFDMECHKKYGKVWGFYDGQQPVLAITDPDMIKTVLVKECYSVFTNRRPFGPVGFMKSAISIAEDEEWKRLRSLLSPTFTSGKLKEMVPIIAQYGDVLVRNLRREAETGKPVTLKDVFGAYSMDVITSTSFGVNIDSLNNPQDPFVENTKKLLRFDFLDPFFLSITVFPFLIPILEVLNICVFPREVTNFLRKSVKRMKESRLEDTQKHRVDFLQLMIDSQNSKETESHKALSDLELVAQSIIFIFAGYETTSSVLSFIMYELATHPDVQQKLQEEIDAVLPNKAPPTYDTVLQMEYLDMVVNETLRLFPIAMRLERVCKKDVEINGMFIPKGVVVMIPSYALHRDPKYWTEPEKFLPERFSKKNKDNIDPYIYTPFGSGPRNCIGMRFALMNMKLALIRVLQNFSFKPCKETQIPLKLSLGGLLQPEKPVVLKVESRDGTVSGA

System in one series: not listed separately
The experiment in a line: Inhibition of canonical Wnt pathway in human DBTRG-05-MG cells after 36 hrs by TCF-luciferase and TA-renilla dual-luciferase reporter assay. The class given is cell-based.
Settings: not given; call rule not given here
(In general: In a reporter assay the amount or activity of a reporter protein is the signal.)
One may read the IC50 as the midpoint of a concentration-inhibition curve. On to `CC(=O)N1CCC(c2nc(NCc3ccccn3)ncc2-c2cc(C)no2)CC1`, for which the IC50 entry is “Not Active”.
On the same count and under the same terms, the result for `CC(=O)N1CCC(c2nc(NC(C)C)ncc2-c2cc(C)no2)CC1` reads “Not Active”; that for `Cc1cc(-c2cnc(N3CCCC3)nc2-c2ccc(C)s2)on1`, “Not Active”.
For the compound `Cc1cc(-c2cnc(NCc3ccc(F)cc3)nc2-c2ccc(C)s2)on1`, the half-inhibitory concentration (IC50) result was “Not Active”.
Still for that read-out and setting: the result for `COCCNc1ncc(-c2cc(C)no2)c(C2CCN(C(C)=O)CC2)n1` reads “Not Active”.
Same read-out and setting: with `CC(=O)N1CCC(c2nc(N3CCN(C)CC3)ncc2-c2cc(C)no2)CC1` the entry was “Not Active”.
Same read-out and setting: the result for `COCCNc1ncc(-c2cc(C)no2)c(-c2ccc(C)s2)n1` reads “Not Active”; that for `Cc1cc(-c2cnc(N3CCN(C)CC3)nc2-c2ccc(C)s2)on1`, “Not Active”; that for `Cc1cc(-c2cnc(NC(C)C)nc2-c2ccc(C)s2)on1`, “Not Active”.
Consider `CC(=O)N1CCC(c2nc(NCc3ccc(F)cc3)ncc2-c2cc(C)no2)CC1`, for which the IC50 result is “Not Active”.
On the same count and under the same terms, with `CC(=O)N1CCC(c2nc(N3CCCC3)ncc2-c2cc(C)no2)CC1` the entry was “Not Active”.

The series is the same for the next values; noted with them: Homo sapiens, DBTRG-05MG, 36 h; read-out: IC50.
In the case of `Cc1cc(-c2cnc(NCc3ccccn3)nc2-c2ccc(C)s2)on1`, the IC50 amounted to 13.9 µM.
Still for that read-out and setting: with `CC(=O)N1CCC(c2nc(N3CCOCC3)ncc2-c2cc(C)no2)CC1` the figure was 10.6 µM.
`Cc1cc(-c2cnc(N3CC(C)OC(C)C3)nc2-c2ccc(C)s2)on1` (stereo not drawn): the IC50 was 14.1 µM.
Same read-out and setting: the result for `Cc1cc(-c2cnc(N3CCOCC3)nc2-c2ccc(C)s2)on1` reads 8.5 µM; that for `Cc1cc(-c2cnc(NC(C)C)nc2C2CCN(C(=O)c3ccc(C)s3)CC2)on1`, 8.05 µM.
In the case of `Cc1cc(-c2cnc(NCc3cccnc3)nc2-c2ccc(C)s2)on1`, the IC50 stood at 17.6 µM.

System in the next series: not listed separately
The experiment in a line: Solubility of the compound at pH 3 to 7.4 after 24 hrs. The class given is physicochemical. As to conditions: buffer, pH 3.
Usually solubility stands for how much of the substance goes into solution per volume. `CC(=O)N1CCC(c2nc(NCc3ccccn3)ncc2-c2cc(C)no2)CC1`: the solubility at 24 h was 221 µM (≈ 86.7 µg/mL).
Still for that read-out and setting: the result for `CC(=O)N1CCC(c2nc(NCc3cccnc3)ncc2-c2cc(C)no2)CC1` reads 238 µM (≈ 93.4 µg/mL); that for `CC(=O)N1CCC(c2nc(NC(C)C)ncc2-c2cc(C)no2)CC1`, 224 µM (≈ 76.9 µg/mL); that for `Cc1cc(-c2cnc(NCc3ccccn3)nc2-c2ccc(C)s2)on1`, 1 µM (≈ 0.363 µg/mL).
On the same count and under the same terms, with `COCCNc1ncc(-c2cc(C)no2)c(C2CCN(C(C)=O)CC2)n1` the figure was 233 µM (≈ 83.7 µg/mL); with `CC(=O)N1CCC(c2nc(N3CCN(C)CC3)ncc2-c2cc(C)no2)CC1`, 225 µM (≈ 86.5 µg/mL); with `CC(=O)N1CCC(c2nc(N3CCOCC3)ncc2-c2cc(C)no2)CC1`, 211 µM (≈ 78.4 µg/mL).
Consider `Cc1cc(-c2cnc(N3CCN(C)CC3)nc2-c2ccc(C)s2)on1`, for which the solubility at 24 h stood at 11 µM (≈ 3.91 µg/mL).
Compound `Cc1cc(-c2cnc(NCc3cccnc3)nc2-c2ccc(C)s2)on1` came in with a solubility at 24 h of 1 µM (≈ 0.363 µg/mL).
Still for that read-out and setting: the result for `CC(=O)N1CCC(c2nc(N3CCCC3)ncc2-c2cc(C)no2)CC1` reads 207 µM (≈ 73.6 µg/mL).

The series is the same for the next values; noted with them: buffer, pH 3, 24 h.
With `Cc1cc(-c2cnc(N3CCCC3)nc2-c2ccc(C)s2)on1`, the solubility entry was “Insoluble”.
`Cc1cc(-c2cnc(NCc3ccc(F)cc3)nc2-c2ccc(C)s2)on1`: the solubility entry is given as “Insoluble”.
The same measure, in the same setting: the result for `Cc1cc(-c2cnc(N3CC(C)OC(C)C3)nc2-c2ccc(C)s2)on1` (stereo not drawn) reads “Insoluble”; that for `COCCNc1ncc(-c2cc(C)no2)c(-c2ccc(C)s2)n1`, “Insoluble”.
Still for that read-out and setting: the result for `Cc1cc(-c2cnc(N3CCOCC3)nc2-c2ccc(C)s2)on1` reads “Insoluble”.
As for `Cc1cc(-c2cnc(NC(C)C)nc2C2CCN(C(=O)c3ccc(C)s3)CC2)on1`, the solubility result was “Insoluble”.
Consider `Cc1cc(-c2cnc(NC(C)C)nc2-c2ccc(C)s2)on1`, for which the solubility entry is recorded as “Insoluble”.
Consider `CC(=O)N1CCC(c2nc(NCc3ccc(F)cc3)ncc2-c2cc(C)no2)CC1`, for which the solubility entry is “Insoluble”.

System in a further series: not listed separately
The experiment in a line: Permeability of the compound by PAMPA. The class given is physicochemical. Conditions: read-out: permeability.
As for `CC(=O)N1CCC(c2nc(NCc3ccccn3)ncc2-c2cc(C)no2)CC1`, the Papp came out at 2 ×10⁻⁶ cm/s.
Regarding `CC(=O)N1CCC(c2nc(NCc3cccnc3)ncc2-c2cc(C)no2)CC1`, the Papp was determined as 2 ×10⁻⁶ cm/s.
Regarding `CC(=O)N1CCC(c2nc(NC(C)C)ncc2-c2cc(C)no2)CC1`, the Papp is more than 10 ×10⁻⁶ cm/s.
`COCCNc1ncc(-c2cc(C)no2)c(C2CCN(C(C)=O)CC2)n1`: the Papp came out at 2 ×10⁻⁶ cm/s.
Turning to `CC(=O)N1CCC(c2nc(N3CCN(C)CC3)ncc2-c2cc(C)no2)CC1`, the Papp was 2 ×10⁻⁶ cm/s.
On the same count and under the same terms, the result for `CC(=O)N1CCC(c2nc(N3CCOCC3)ncc2-c2cc(C)no2)CC1` reads more than 10 ×10⁻⁶ cm/s.
Same read-out and setting: with `COCCNc1ncc(-c2cc(C)no2)c(-c2ccc(C)s2)n1` the figure was more than 10 ×10⁻⁶ cm/s.
Take `Cc1cc(-c2cnc(N3CCN(C)CC3)nc2-c2ccc(C)s2)on1`: the Papp was more than 10 ×10⁻⁶ cm/s.
For `CC(=O)N1CCC(c2nc(NCc3ccc(F)cc3)ncc2-c2cc(C)no2)CC1`, the Papp was more than 10 ×10⁻⁶ cm/s.
The same measure, in the same setting: the result for `CC(=O)N1CCC(c2nc(N3CCCC3)ncc2-c2cc(C)no2)CC1` reads more than 10 ×10⁻⁶ cm/s.

The next series concerns the target CYP3A4 (Homo sapiens, UniProt P08684). The experiment in a line: Metabolic stability of in DMSO solution assessed as human CYP3A4-mediated drug degdaradtion by measuring compound remaining at 1 uM after 1 hr in presence of human CYP3A4 and NADPH. The class given is ADME. As to conditions: human CYP3A4 enzyme, read-out: Stability.
For `CC(=O)N1CCC(c2nc(NCc3ccccn3)ncc2-c2cc(C)no2)CC1`, the remaining at 1 h, 1 µM was 27%.
On the same count and under the same terms, the result for `CC(=O)N1CCC(c2nc(NCc3cccnc3)ncc2-c2cc(C)no2)CC1` reads less than 20%.
With `CC(=O)N1CCC(c2nc(NC(C)C)ncc2-c2cc(C)no2)CC1`, the remaining at 1 h, 1 µM amounted to 75%.
The same measure, in the same setting: with `Cc1cc(-c2cnc(N3CCCC3)nc2-c2ccc(C)s2)on1` the figure was less than 20%; with `Cc1cc(-c2cnc(NCc3ccc(F)cc3)nc2-c2ccc(C)s2)on1`, 29%; with `Cc1cc(-c2cnc(NCc3ccccn3)nc2-c2ccc(C)s2)on1`, less than 20%.
`COCCNc1ncc(-c2cc(C)no2)c(C2CCN(C(C)=O)CC2)n1`: the remaining at 1 h, 1 µM amounted to 84%.
On the same count and under the same terms, the result for `CC(=O)N1CCC(c2nc(N3CCN(C)CC3)ncc2-c2cc(C)no2)CC1` reads 100%; that for `CC(=O)N1CCC(c2nc(N3CCOCC3)ncc2-c2cc(C)no2)CC1`, 75%; that for `Cc1cc(-c2cnc(N3CC(C)OC(C)C3)nc2-c2ccc(C)s2)on1` (stereo not drawn), less than 20%.
The same measure, in the same setting: with `COCCNc1ncc(-c2cc(C)no2)c(-c2ccc(C)s2)n1` the figure was 27%.
Same read-out and setting: with `Cc1cc(-c2cnc(N3CCOCC3)nc2-c2ccc(C)s2)on1` the figure was less than 20%; with `Cc1cc(-c2cnc(N3CCN(C)CC3)nc2-c2ccc(C)s2)on1`, 51%.
Turning to `Cc1cc(-c2cnc(NC(C)C)nc2C2CCN(C(=O)c3ccc(C)s3)CC2)on1`, the remaining at 1 h, 1 µM was less than 20%.
With `Cc1cc(-c2cnc(NC(C)C)nc2-c2ccc(C)s2)on1`, the remaining at 1 h, 1 µM came out at 20%.
The same measure, in the same setting: with `CC(=O)N1CCC(c2nc(NCc3ccc(F)cc3)ncc2-c2cc(C)no2)CC1` the figure was less than 20%.
For the compound `Cc1cc(-c2cnc(NCc3cccnc3)nc2-c2ccc(C)s2)on1`, the remaining at 1 h, 1 µM was less than 20%.
Still for that read-out and setting: the result for `CC(=O)N1CCC(c2nc(N3CCCC3)ncc2-c2cc(C)no2)CC1` reads 59%.

The record behind these values is ChEMBL document CHEMBL3608302, “Identification of 2-aminopyrimidine derivatives as inhibitors of the canonical Wnt signaling pathway” (Bioorg Med Chem, 2015).
